Experimental data from ChEMBL document CHEMBL4842364 (J Med Chem, 2021).

Tests used:
[1] = AUC(0 to 24 hrs) in rat at 60 mg/kg, po; format: ADME, organism-based; set-up: time < 24 hr, route oral, dose 60 mg/kg; details: in vivo
[2] = target: T1, Mitogen-activated protein kinase kinase kinase 19 (Homo sapiens) (UniProt Q56UN5); assay: Inhibition of YSK4 (unknown origin) at 1 uM relative to control
T1 sequence (whole entry): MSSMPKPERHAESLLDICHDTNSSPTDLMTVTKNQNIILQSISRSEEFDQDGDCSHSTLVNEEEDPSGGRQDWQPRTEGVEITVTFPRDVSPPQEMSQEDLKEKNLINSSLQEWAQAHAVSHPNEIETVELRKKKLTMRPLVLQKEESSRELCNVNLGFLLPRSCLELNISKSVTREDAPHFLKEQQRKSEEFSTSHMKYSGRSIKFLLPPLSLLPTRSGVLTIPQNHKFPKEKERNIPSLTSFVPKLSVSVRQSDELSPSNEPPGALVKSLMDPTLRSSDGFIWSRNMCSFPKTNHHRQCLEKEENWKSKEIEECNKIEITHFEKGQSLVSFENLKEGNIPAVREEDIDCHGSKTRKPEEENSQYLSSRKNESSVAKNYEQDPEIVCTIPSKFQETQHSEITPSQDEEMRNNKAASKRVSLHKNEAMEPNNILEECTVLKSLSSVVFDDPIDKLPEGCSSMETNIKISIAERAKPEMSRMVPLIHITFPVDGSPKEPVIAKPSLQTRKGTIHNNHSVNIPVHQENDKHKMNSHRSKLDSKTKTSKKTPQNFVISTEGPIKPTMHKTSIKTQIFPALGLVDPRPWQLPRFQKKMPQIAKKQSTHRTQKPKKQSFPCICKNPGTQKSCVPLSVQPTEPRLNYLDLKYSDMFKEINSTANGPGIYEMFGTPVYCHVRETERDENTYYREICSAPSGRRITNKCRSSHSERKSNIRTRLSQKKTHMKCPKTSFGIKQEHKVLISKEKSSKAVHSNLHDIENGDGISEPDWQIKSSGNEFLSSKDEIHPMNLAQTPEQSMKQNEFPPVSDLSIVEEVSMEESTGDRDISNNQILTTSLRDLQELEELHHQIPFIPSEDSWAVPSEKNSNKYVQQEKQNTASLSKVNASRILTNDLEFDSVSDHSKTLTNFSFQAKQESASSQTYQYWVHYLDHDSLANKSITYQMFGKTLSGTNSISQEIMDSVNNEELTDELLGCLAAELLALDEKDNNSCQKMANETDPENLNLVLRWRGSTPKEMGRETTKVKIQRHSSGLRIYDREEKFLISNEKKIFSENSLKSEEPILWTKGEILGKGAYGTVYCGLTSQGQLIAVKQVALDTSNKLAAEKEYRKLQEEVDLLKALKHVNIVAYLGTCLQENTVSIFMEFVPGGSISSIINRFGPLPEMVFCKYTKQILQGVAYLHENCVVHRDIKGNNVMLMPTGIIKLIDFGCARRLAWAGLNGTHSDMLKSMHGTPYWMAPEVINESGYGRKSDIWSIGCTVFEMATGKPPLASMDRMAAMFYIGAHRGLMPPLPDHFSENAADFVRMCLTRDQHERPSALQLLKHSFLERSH

[3] = Plasma protein binding in mouse; format: ADME, cell-free; details: read-out: PPB (converted)
[4] = AUC(0 to 24 hrs) in mouse at 60 mg/kg, po; format: ADME, organism-based; set-up: time < 24 hr, route oral, dose 60 mg/kg; details: in vivo
[5] = Intrinsic clearance in human microsomes; format: ADME, Microsome
Wee1-like protein kinase = Wee1-like protein kinase (Homo sapiens, UniProt P30291)
Sequence of Wee1-like protein kinase (P30291 whole entry): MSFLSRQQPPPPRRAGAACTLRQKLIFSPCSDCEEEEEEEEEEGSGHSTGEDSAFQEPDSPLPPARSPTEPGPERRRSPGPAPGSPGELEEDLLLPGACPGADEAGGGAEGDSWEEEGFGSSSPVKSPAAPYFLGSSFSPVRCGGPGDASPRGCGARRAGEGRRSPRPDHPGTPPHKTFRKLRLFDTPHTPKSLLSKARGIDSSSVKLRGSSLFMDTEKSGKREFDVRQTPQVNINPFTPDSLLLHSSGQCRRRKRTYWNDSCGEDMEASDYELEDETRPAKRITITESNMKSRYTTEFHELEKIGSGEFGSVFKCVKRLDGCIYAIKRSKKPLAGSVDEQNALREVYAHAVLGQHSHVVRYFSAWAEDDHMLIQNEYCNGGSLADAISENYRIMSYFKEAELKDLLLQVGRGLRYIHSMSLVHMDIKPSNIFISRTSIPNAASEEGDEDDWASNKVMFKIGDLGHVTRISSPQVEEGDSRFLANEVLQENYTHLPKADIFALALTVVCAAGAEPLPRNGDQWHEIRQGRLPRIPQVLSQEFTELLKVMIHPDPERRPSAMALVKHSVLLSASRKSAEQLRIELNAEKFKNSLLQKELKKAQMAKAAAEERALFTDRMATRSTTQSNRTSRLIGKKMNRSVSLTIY
Description: Displacement of Alexa Fluor labelled kinase tracer178 from WEE1 (unknown origin) incubated for 60 mins by FRET assay

[6] = target: Serine/threonine-protein kinase PLK3 (Homo sapiens, UniProt Q9H4B4); assay: Inhibition of PLK3 (unknown origin) at 1 uM relative to control
Sequence of Serine/threonine-protein kinase PLK3 (Q9H4B4 whole entry, looked up): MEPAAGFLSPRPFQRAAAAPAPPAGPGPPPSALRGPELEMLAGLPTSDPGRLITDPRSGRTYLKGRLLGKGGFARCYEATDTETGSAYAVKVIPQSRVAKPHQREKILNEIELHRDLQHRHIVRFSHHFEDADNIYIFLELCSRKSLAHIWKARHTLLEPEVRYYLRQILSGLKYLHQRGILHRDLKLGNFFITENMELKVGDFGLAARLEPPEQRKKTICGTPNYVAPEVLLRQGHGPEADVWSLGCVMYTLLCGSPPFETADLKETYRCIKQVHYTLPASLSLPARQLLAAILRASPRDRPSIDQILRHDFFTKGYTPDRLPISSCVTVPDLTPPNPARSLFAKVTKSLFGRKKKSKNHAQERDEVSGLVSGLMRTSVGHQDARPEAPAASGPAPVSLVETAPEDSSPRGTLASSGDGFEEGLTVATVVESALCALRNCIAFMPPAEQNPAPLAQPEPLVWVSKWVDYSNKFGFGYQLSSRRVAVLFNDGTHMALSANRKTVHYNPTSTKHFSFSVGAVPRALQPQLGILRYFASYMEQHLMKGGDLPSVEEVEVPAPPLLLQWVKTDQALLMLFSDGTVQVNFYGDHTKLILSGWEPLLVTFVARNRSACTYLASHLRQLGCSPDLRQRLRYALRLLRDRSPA

[7] = target: Epidermal growth factor receptor (Homo sapiens) (UniProt P00533); assay: Inhibition of EGFR (unknown origin) at 1 uM relative to control
Sequence of Epidermal growth factor receptor (Homo sapiens) (P00533 whole entry): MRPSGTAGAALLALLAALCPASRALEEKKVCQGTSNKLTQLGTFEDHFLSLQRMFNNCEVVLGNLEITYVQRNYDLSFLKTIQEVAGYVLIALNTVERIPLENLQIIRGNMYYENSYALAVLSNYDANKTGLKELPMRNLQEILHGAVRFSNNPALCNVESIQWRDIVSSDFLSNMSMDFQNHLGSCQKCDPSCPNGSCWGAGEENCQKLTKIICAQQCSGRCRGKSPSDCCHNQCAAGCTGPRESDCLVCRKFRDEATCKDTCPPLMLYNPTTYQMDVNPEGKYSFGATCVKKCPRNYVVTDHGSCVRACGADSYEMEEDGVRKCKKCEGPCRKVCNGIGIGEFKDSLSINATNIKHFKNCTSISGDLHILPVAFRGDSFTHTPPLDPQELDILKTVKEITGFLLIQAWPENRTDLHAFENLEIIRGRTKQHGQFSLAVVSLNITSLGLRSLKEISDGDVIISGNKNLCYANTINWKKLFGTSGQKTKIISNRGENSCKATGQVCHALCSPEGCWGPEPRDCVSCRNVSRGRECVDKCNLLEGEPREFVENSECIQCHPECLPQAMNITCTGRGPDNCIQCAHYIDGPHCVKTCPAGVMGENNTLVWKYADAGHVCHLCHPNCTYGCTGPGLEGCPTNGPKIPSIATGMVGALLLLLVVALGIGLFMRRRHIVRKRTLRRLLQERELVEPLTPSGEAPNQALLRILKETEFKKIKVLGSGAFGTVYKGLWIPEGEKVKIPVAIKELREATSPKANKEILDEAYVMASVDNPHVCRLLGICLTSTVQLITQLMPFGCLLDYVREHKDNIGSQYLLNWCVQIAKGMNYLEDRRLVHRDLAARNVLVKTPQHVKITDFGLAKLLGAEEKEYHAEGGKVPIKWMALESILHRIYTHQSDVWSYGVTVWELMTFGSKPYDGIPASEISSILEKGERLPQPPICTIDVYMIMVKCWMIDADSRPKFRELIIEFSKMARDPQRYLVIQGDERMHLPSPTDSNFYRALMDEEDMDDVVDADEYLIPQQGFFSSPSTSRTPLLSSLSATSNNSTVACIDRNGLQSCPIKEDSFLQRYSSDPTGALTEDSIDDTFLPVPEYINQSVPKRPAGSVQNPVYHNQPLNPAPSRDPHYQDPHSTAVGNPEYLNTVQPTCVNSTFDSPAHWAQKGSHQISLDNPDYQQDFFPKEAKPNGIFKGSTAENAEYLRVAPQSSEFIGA

[8] = target: T2, Cyclin-G-associated kinase (Homo sapiens) (UniProt O14976); assay: Inhibition of GAK (unknown origin) at 1 uM relative to control
T2 sequence (whole entry): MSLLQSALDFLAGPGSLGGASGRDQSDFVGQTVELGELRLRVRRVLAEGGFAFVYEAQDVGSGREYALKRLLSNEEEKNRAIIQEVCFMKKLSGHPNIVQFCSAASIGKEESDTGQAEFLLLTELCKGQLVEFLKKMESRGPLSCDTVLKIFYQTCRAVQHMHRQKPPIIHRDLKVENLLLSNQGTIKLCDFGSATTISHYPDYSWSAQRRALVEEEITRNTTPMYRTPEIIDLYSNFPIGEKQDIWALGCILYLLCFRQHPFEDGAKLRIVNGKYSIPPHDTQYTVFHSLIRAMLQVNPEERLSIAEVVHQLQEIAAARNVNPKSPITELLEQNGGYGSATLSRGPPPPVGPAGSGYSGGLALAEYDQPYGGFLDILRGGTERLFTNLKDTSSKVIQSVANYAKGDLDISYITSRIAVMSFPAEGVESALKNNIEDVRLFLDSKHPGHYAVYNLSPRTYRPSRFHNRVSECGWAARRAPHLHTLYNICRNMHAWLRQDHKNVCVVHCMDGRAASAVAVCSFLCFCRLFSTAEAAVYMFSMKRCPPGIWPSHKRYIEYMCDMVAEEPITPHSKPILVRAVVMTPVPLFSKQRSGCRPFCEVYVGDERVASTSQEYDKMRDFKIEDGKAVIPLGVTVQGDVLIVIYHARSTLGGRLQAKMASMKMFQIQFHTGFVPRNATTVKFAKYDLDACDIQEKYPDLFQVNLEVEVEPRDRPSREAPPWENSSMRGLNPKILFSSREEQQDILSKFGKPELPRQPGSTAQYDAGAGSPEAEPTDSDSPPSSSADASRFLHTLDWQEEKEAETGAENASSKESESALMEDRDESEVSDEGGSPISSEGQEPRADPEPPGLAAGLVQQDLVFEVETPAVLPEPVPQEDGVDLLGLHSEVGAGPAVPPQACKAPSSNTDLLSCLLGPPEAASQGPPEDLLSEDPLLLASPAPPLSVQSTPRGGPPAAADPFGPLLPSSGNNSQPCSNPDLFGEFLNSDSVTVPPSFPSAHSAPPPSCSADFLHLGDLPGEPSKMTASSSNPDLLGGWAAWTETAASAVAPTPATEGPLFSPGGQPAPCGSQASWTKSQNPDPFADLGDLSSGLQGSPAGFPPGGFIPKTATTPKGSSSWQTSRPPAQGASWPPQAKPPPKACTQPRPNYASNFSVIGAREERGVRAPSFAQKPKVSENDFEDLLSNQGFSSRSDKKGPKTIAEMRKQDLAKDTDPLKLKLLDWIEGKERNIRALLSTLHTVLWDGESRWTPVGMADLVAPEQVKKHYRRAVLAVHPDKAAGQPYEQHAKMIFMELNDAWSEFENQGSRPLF

[9] = Plasma protein binding in human; format: ADME, cell-free; details: read-out: PPB (converted)
NCI-H23 = assay: Antiproliferative activity against human NCI-H23 cells assessed as reduction in cell viability after 4 days by CellTiter-Glo assay; details: Homo sapiens, NCI-H23, 96 h
[10] = target: Serine/threonine-protein kinase PLK2 (Homo sapiens, UniProt Q9NYY3); assay: Inhibition of PLK2 (unknown origin) at 1 uM relative to control
Sequence of Serine/threonine-protein kinase PLK2 (Q9NYY3 whole entry, looked up): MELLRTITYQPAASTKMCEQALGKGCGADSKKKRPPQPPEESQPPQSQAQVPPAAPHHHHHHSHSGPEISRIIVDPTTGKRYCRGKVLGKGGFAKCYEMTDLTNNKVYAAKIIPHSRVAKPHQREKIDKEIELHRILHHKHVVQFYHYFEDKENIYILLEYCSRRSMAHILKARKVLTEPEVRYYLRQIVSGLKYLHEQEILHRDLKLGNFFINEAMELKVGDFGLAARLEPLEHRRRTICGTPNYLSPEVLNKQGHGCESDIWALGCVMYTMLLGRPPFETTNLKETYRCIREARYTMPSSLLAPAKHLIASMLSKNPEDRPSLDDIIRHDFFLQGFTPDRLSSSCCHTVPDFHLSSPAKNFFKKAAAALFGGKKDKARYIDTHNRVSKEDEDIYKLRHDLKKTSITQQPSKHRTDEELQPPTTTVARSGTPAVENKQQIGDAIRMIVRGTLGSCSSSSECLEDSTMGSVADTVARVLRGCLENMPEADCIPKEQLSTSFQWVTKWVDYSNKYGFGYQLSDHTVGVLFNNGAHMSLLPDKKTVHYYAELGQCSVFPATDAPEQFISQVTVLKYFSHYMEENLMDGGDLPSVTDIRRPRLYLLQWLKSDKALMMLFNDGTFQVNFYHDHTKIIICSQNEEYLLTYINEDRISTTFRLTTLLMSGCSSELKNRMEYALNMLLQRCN

[11] = Intrinsic clearance in mouse microsomes; format: ADME, Microsome
[12] = Octanol/buffer distribution coefficient, logD of the compound at pH 7.4; format: physicochemical

For C=CCn1c(=O)c2cnc(Nc3ccc(N4CCN(C)CC4)cc3)nc2n1-c1ccc2c(n1)[C@](C)(O)CC2, the AUC(0-t) at 24 h [1] was 35 µM·h, the inhibition [2] was > 90% and the fraction unbound [3] was 0.27. It also gave an AUC(0-t) at 24 h [4] of 27 µM·h, a CLint scaled [5] of 20 mL/min/kg and an IC50 (Wee1-like protein kinase) of 4.8 nM. For the same molecule, the inhibition [6] was 75%, the inhibition [7] was > 90% and the inhibition [8] was 75%. For the same molecule, the fraction unbound [9] was 0.47, the IC50 (NCI-H23) was 317 nM and the inhibition [10] was > 90%. The CLint scaled [11] was < 38 mL/min/kg and the logD [12] was 2.
